Series [1] is described as follows: Molar enthalpy of transition or fusion. As to conditions: Crystal; DSC.
For series [2] the following is noted: Crystal; DSC.

SMILES strings stand for the structures. ± gives the expanded uncertainty stated by the source.

As for `Cc1ccc2cc(C)ccc2c1` [2,6-dimethylnaphthalene], the “Molar enthalpy of transition or fusion” value in series [1] is 5.95 ± 0.136 kcal/mol. Besides, the Triple point temperature in series [2] worked out at 384.41 ± 1.2 K.

For the origin of these results see the NIST ThermoML archive (doi:10.1021/acs.jced.8b01209).
